Reference: PubChem BioAssay (NCI)
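Interpolation was linear, between the two tested concentrations surrounding the appropriate level; five concentrations were tested over 48 hours in 96-well plates. Abbreviation: GI50, concentration required for 50% inhibition of growth. The concentration for full growth arrest is given as TGI.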

Assays:
Assay in all cases: NCI tumour cell line growth inhibition, 48 h
HOP-62 NSCLC = test system: HOP-62 NSCLC
U251 CNS = test system: U251 CNS
UO-31 renal = test system: UO-31 renal
HCT-116 colon = test system: HCT-116 colon
SK-OV-3 ovarian = test system: SK-OV-3 ovarian
SK-MEL-5 melanoma = test system: SK-MEL-5 melanoma
LOX IMVI melanoma = test system: LOX IMVI melanoma
HS 578T breast = test system: HS 578T breast
UACC-257 melanoma = test system: UACC-257 melanoma
SN12C renal = test system: SN12C renal

SMILES	GI50 (HOP-62 NSCLC) [µM]	TGI (HOP-62 NSCLC) [µM]	GI50 (U251 CNS) [µM]	TGI (U251 CNS) [µM]	GI50 (UO-31 renal) [µM]	TGI (UO-31 renal) [µM]	GI50 (HCT-116 colon) [µM]	TGI (HCT-116 colon) [µM]	GI50 (SK-OV-3 ovarian) [µM]	TGI (SK-OV-3 ovarian) [µM]	GI50 (SK-MEL-5 melanoma) [µM]	TGI (SK-MEL-5 melanoma) [µM]	GI50 (LOX IMVI melanoma) [µM]	TGI (LOX IMVI melanoma) [µM]	GI50 (HS 578T breast) [µM]	TGI (HS 578T breast) [µM]	GI50 (UACC-257 melanoma) [µM]	TGI (UACC-257 melanoma) [µM]	GI50 (SN12C renal) [µM]	TGI (SN12C renal) [µM]
COC1=CC(c2ccc[nH]2)=N/C1=C\c1[nH]c(C)c(C(=O)CCCCC(=O)NC(C)(C)C)c1C	1.74	5.02	1.29	2.57	1.95	6.27	1.2	2.43	9.31	25.5	1.97	5.24	1.15	2.42	1.75	4.26	16	35.8	2.19	7.32
COc1cccc(-c2nn(-c3ccccc3)cc2-c2ccnc(NCCCNC(=O)Nc3ccc(Cl)c(Cl)c3)c2)c1	3.23	8.88	3.1	11.7	1.78	5.65	2.33	5.75	4.92	18.6	1.75	3.32	1.64	3.03	2.35	7.53	2.05	5.38	5.73	25
CC1OC(OC2C[C@](O)(C(=O)CF)Cc3c(O)c4c(c(O)c32)C(=O)c2ccccc2C4=O)CC(N)C1O (stereo partly specified)	–	0.0462	–	0.394	–	1.02	–	0.388	–	1.04	–	0.0657	–	0.276	–	0.117	–	1.21	–	0.338
CNCCCn1c2c(c3ccc([N+](=O)[O-])cc3c1=O)C(=O)c1cc(OC)cnc1-2	0.03	0.139	0.0364	0.251	0.0341	0.221	0.0283	0.186	0.0568	0.351	0.107	0.279	0.0259	0.136	1.17	5.27	0.175	0.953	0.0461	1.2
COC(=O)c1ccccc1OCc1cc(=O)oc2ccc(C)cc12	–	> 57.5	–	35.4	–	> 100	–	> 100	–	> 100	–	> 100	–	> 100	–	> 100	–	> 100	–	> 100
COc1ccc(-c2nc(/C=N/Nc3cc(C)nc4ccc(Cl)cc34)c(C)o2)cc1	1.64	3.12	1.78	3.28	1.6	3	1.82	3.27	1.65	3.06	1.77	3.17	1.74	3.23	1.84	3.79	1.7	3.35	1.8	3.42
COc1ccc(C2CC(C)(O)Oc3cc4c(cc32)OCO4)cc1 (stereo unspecified)	–	> 100	–	> 100	–	> 100	–	> 100	43.2	> 100	–	69	–	> 100	–	97.9	–	> 100	–	> 100
O=C(Nc1cccc(-n2cc(-c3ccncc3)c(-c3cc(O)cc(Cl)c3)n2)c1)Nc1ccc(Cl)c(C(F)(F)F)c1	3.08	13.4	1.72	3.65	2.1	6.14	1.96	4.47	4.11	30.7	1.69	3.23	1.97	4.36	3.29	> 100	1.99	5.34	3.45	17.2
O=C(O)c1cc2ccc3ccccc3c2oc1=O	–	> 100	–	> 100	–	> 100	–	> 100	–	> 100	–	> 100	–	> 100	–	> 100	–	> 100	–	> 100
